Laboratory results taken from patent US20230033582A1, “POLYMERIC NANOPARTICLES FOR ENHANCED CANCER TREATMENT” (THE QUEEN'S UNIVERSITY OF BELFAST, priority 2019, published 2023).

Columns and labels:
MC38 cells = assay: Flow cytometry of SIINFEKL presentation on MHC I (SIINFEKL-bound MHC antibody) in MC38 cells; type: cell-based; settings: for presentation of NP-encapsulated OVA-derived SIINFEKL after pre-treatment: then OVA-NPs for 6 hours
Experimental: FIG. 8: illustrate the results of Gemcitabine enhances SIINFEKL presentation: MC38 cells were pretreated with 30 nm Gemcitabine for 24 hours. Then, cells were treated with 1 μM SIINFEKL peptide for 6 hours. After 6 hours, cells were stained with PE-SIINFEKL-bound MHC antibody to determine the levels of SIINFEKL presentation. Presentation of SIINFEKL was enhanced after pre-treatment with Gemcitabine highlighting the potential of boosting CD8+ T cell recognition of tumour cells through combining the nanoformulation with Gemcitabine;
(§1) FIG. 9: illustrate the results of Gemcitabine enhances the presentation of Ovalbumin-derived SIINFEKL encapsulated within nanoparticles: MC38 cells were pre-treated with 7.5, 15 and 30 nm Gemcitabine for 24 hours. Then, the cells were treated with OVA-NPs for 6 hours. After 6 hours, cells were stained with PE-SIINFEKL-Bound MHC antibody and an isotype control antibody to determine levels of OVA-derived SIINFEKL presentation. NP-encapsulated OVA-derived SIINFEKL was seen to be enhanced after pre-treatment with Gemcitabine;
FIG. 10: illustrate the results of Epigenetic modifying agents (EMAs) enhance the presentation of Ovalbumin-derived SIINFEKL encapsulated within nanoparticles: MC38 cells were pre-treated with Entinostat and Decitabine. After 24 hours, cells were treated with OVA-NPs (250 μg/mL) for 6 hours. Cells were stained with SIINFEKL-bound MHC antibody and the surface presentation of SIINFEKL was determined by flow cytometry. Both agents in combination enhanced SIINFEKL presentation;
as §1, with “11:” for “9:”, “Lysosome disruptive agent L-leucyl-L-leucine methyl ester (LLOME)” for “Gemcitabine”, “LLOME” for “7.5, 15 and 30 nm Gemcitabine”, “PE-SIINFEKL-bound” for “PE-SIINFEKL-Bound”, “LLOME;” for “Gemcitabine;”
as §1, with “12:” for “9:”, “the anti-malarial Mefloquine” for “Gemcitabine”, “Mefloquine” for “7.5, 15 and 30 nm Gemcitabine”, “PE-SIINFEKL-bound” for “PE-SIINFEKL-Bound”, “Mefloquine.” for “Gemcitabine;”
MC38 cells were seeded at 5×10^4 in 6 well plates and left overnight to adhere in 2 mL of the appropriate growth medium. Following this, the cells were treated with 250 μg/mL of either acid terminated poly(lactic-co-glycolic acid) (PLGA) nanoparticles (NPs) or PLGA NPs encapsulating the SIINFEKL peptide (for cells treated at 4 degrees C., cells were maintained at 4° C. for 45 minutes prior to treatment). Following treatment, the cells were washed 3 times with sterile PBS (4° C. treatment group were washed on ice) and the cells incubated for a following 6 hours at 37° C. The surface expression of SIINFEKL was determined by flow cytometry.
MC38 cells were seeded at 5×10^4 in 6 well plates and left overnight to adhere in 2 mL of the appropriate growth medium. Following this, the cells were treated with 250 μg/mL of either acid terminated poly(lactic-co-glycolic acid) (PLGA) nanoparticles (NPs) or PLGA NPs encapsulating the Ovalbumin protein. Free, pre-processed SIINFEKL was used as a positive control. Cells were incubated for 24 hours at 37° C. Following this, the cells were collected and incubated with a PE-conjugated antibody specific for MHC-I bound to the SIINFEKL peptide (Biolegend, USA). Next, presentation of the SIINFEKL peptide was assessed by flow cytometry. […]

[1] = biological target: SIINFEKL bound to MHC class I on the cell surface (UniProt P01901); assay: flow cytometry, JAWS II cells treated with free SIINFEKL
JAWS II cells = assay: Flow cytometry of SIINFEKL presentation on MHC I (SIINFEKL-bound MHC antibody) in JAWS II dendritic cell line; type: cell-based; settings: FIG. 5, free SIINFEKL positive control, 6 hours
Experimental: FIG. 5: illustrate the results of Nanoparticle encapsulated SIINFEKL is presented on MHC I in the JAWS II dendritic cell line: JAWS II cells were seeded in 6 well plates at 1×10^5 and left overnight. The following day, cells were treated with either 500 μg of PLGA-SIINFEKL NP (SIINFEKL NP), PLGA NP (B-NP) or free SIINFEKL (Positive control). The cells were incubated at 37° C. in 5% CO2 for 6 hours. After incubation, an antibody specific for SIINFEKL bound to MHC I was used to detect cell surface expression of the antigen. Assessment was undertaken using flow cytometry. An Isotype specific IgG control (SIINFEKL IgG) was used to detect non-specific binding of the antibody. […] Diagram is a representative figure from 3 independent experiments;
FIG. 6: illustrate the results of Presentation of nanoparticle-encapsulated SIINFEKL is dependent on endocytosis: (A) JAWS II cells and (B) MC38 cells ells were treated with either 250 μg/mL blank nanoparticles (B-NP), 250 μg/mL nanoparticles encapsulating the SIINFEKL peptide (SIINFEKL-NP) or 1 μM free SIINFEKL (positive control) for 1 hour at either 4° C. or 37° C. Cells were washed to remove non-endocytosed nanoparticles or free peptide and were incubated at 37° C. Cells were stained with SIINFEKL-bound MHC antibody and SIINFEKL presentation was determined by flow cytometry. […]

[2] = FIG. 11 and 12, MC38 cells pre-treated for 24 hours

For Nc1ccccc1NC(=O)c1ccc(CNC(=O)OCc2cccnc2)cc1 [Entinostat], the “SIINFEKL presentation after pre-treatment, both agents in combination” value (MC38 cells; FIG. 10, MC38 cells pre-treated with Entinostat and Decitabine 24 hours, then OVA-NPs (250 μg/mL) for 6 hours) was “enhanced”.

For Nc1ccn([C@@H]2O[C@H](CO)[C@@H](O)C2(F)F)c(=O)n1 [Gemcitabine], the “Presentation of SIINFEKL after pre-treatment” value (MC38 cells; FIG. 8, MC38 cells pretreated with 30 nm Gemcitabine for 24 hours, then 1 μM SIINFEKL peptide for 6 hours) was “enhanced” and the “presentation of NP-encapsulated OVA-derived SIINFEKL after pre-treatment” value (MC38 cells; FIG. 9, MC38 cells pre-treated with 7.5, 15 and 30 nm Gemcitabine for 24 hours) was “enhanced”.

For COC(=O)[C@H](CC(C)C)NC(=O)[C@@H](N)CC(C)C [LLOME, L-leucyl-L-leucine methyl ester], the “presentation of NP-encapsulated OVA-derived SIINFEKL after pre-treatment” value (MC38 cells; [2]) was “enhanced”.

OC(c1cc(C(F)(F)F)nc2c(C(F)(F)F)cccc12)C1CCCCN1 (centres unmarked) [Mefloquine] was tested, and the “presentation of NP-encapsulated OVA-derived SIINFEKL after pre-treatment” value (MC38 cells; [2]) was “enhanced”.

For “PE-conjugated antibody specific for MHC-I bound to the SIINFEKL peptide (Biolegend, USA)”, the positive cells [1] was 100%.

“SIINFEKL (Model Peptide) [SIINFEKL peptide, positive control]” was tested, and the “SIINFEKL on the cell surface (fluorescent signal, geomean)” value (MC38 cells; FIG. 3, MC38 cells, 1 μM SIINFEKL peptide for 4 hours) was “high levels SIINFEKL on the surface” and the “cells positive for SIINFEKL-MHC I antibody staining” value (JAWS II cells) was ~100%.
